Assay results taken from ChEMBL document CHEMBL1201862, “PubChem BioAssay data set” (2004).
“And” between values parts separate entries of the source, which are not always exact repeats. Equal values may be shown once. The source made the active and inactive calls.

How the values were obtained:
[1] = molecular target: T1, Probable nicotinate-nucleotide adenylyltransferase (Staphylococcus aureus (strain N315), UniProt P65502); format: functional, Staphylococcus aureus subsp. aureus N315;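 for IC50 Mean: confirmatory dose-response retesting of NadD inhibitor hits first found in an ultra-high-throughput screen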
[2] = molecular target: T1, Probable nicotinate-nucleotide adenylyltransferase; format: functional, Staphylococcus aureus subsp. aureus N315; settings: read-out: IC50_Mean
[3] = alpha-synuclein stem-loop luciferase translation blockers – H4 neuroglioma cells, luminescence, confirmation (AID 1988); format: functional, cell-based
Vero = assay: viability of Vero cells under compound – cytotoxicity control for flavivirus capping enzyme inhibitors (AID 588742); format: functional; settings: Chlorocebus sabaeus
[4] = molecular target: Mitochondrial peptide methionine sulfoxide reductase (Bos taurus, UniProt P54149); assay: Absorbance-based biochemical high throughput dose response assay for activators of Methionine sulfoxide reductase A (MsrA).; format: functional
[5] = molecular target: Serine/threonine-protein phosphatase PP1-alpha catalytic subunit (Homo sapiens, UniProt P62136); assay: inhibition of protein phosphatase 1 activity – biochemical, fluorescence, dose response (AID 2394)
[6] = molecular target: Serine/threonine-protein phosphatase (Homo sapiens, UniProt Q9BPW0); assay: inhibition of protein phosphatase 5 activity – biochemical, fluorescence, dose response (AID 2395)
[7] = molecular target: Lysine-specific demethylase 4C (Homo sapiens, UniProt Q9H3R0); assay: inhibition of JMJD2C H3K9me3 demethylation – biochemical, DELFIA europium, cherry-picked samples, dose response (AID 488835); format: functional
[8] = molecular target: DNA (cytosine-5)-methyltransferase 1 (Homo sapiens, UniProt P26358); assay: inhibition of DNA methylation by DNMT1 – biochemical, fluorescent molecular beacon, confirmation (AID 602386); format: functional
[9] = molecular target: Envelope glycoprotein gp160 (Human immunodeficiency virus 1, UniProt Q6QLK5); assay: cell-free HIV fusion peptide-binding blockers – biochemical, uHTS, fluorescence dequenching, […] (AID 1986)
[10] = molecular target: Voltage-gated N-type calcium channel alpha-1B subunit/Amyloid beta A4 precursor protein-binding family A member 1 (Homo sapiens, UniProt Q00975+Q02410); format: protein assay
[11] = molecular target: T2, Dual specificity protein phosphatase 6 (Rattus norvegicus, UniProt Q64346); assay: inhibition of rat DUSP6 enzyme activity – biochemical, in vitro, primary screen (AID 425)
T2 sequence (Q64346 whole entry): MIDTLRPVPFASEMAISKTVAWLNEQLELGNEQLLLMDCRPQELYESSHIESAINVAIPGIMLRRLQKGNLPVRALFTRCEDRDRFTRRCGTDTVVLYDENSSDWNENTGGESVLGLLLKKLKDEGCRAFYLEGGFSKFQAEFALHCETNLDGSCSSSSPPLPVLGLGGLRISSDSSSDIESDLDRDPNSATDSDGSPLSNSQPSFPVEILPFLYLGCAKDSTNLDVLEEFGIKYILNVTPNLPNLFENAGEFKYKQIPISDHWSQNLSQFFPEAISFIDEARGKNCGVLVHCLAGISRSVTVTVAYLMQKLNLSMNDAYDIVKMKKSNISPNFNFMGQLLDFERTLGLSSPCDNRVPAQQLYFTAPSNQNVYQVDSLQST

[12] = molecular target: T3, Tyrosine-protein phosphatase non-receptor type 12 (Homo sapiens, UniProt Q05209); assay: SAR Selectivity Analysis of small molecule inhibitors of PEST using pCAP in a fluorescence assay. [Related pubchem assays (depositor defined):AID1779, AID1784, AID2135]; format: functional
T3 sequence (Q05209 whole entry): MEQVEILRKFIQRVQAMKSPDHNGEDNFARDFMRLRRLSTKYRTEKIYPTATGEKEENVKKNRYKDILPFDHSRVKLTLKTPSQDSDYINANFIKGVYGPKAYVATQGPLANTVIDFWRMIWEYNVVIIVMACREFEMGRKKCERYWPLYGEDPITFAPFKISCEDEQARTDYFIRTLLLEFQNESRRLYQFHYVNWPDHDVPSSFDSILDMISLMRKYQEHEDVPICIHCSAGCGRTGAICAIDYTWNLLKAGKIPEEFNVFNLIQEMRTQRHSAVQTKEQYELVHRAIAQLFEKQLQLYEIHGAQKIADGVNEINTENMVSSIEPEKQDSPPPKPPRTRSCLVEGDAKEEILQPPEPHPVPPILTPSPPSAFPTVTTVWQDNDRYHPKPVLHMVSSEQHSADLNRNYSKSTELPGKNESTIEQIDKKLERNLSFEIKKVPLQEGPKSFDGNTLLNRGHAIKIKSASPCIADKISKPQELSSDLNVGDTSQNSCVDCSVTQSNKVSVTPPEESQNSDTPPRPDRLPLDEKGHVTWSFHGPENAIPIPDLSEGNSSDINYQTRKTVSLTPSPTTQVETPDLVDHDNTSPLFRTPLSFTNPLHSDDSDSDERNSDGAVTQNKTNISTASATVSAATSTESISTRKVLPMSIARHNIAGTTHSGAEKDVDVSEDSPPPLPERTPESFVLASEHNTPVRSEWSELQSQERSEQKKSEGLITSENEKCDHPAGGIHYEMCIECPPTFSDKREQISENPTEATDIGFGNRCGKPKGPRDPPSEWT

[13] = molecular target: T4, Tyrosine-protein phosphatase non-receptor type 22 (Homo sapiens, UniProt Q9Y2R2); assay: PubChem AID 2135
T4 sequence (Q9Y2R2 whole entry): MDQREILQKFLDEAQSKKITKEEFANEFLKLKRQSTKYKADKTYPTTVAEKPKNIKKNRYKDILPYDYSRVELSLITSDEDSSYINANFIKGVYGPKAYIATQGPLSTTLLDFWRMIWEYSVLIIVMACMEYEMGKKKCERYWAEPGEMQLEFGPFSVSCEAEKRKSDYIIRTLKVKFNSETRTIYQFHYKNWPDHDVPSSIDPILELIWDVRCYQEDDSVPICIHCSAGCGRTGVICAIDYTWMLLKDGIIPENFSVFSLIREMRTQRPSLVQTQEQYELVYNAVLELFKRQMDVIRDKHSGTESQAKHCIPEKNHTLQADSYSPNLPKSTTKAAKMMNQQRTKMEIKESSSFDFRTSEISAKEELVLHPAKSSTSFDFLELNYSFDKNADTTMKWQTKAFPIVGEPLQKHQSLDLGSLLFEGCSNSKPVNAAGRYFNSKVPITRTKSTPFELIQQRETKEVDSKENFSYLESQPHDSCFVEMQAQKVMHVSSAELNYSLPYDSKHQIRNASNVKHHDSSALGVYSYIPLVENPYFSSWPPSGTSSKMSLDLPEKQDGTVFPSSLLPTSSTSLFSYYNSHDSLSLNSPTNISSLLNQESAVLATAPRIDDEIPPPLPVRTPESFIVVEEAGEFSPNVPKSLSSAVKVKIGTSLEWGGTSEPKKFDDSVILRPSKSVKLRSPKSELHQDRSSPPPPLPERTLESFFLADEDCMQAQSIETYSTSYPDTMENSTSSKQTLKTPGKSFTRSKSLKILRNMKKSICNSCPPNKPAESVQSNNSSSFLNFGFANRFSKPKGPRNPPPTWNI

[14] = molecular target: T4, Tyrosine-protein phosphatase non-receptor type 22; assay: PubChem AID 2140
Phospholipase A2 = Phospholipase A2 (Homo sapiens, UniProt P04054); format: functional;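 note: confirmatory dose-response counterscreen on phospholipase A2, testing hits that came from an ultra-high-throughput screen for ATG4B inhibitors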
Sequence of Phospholipase A2 (P04054 whole entry): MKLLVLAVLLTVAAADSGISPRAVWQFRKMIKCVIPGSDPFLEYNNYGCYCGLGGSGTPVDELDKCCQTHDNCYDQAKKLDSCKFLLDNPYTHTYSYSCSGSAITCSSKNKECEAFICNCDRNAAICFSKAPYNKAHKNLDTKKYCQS

T1 sequence (P65502 whole entry): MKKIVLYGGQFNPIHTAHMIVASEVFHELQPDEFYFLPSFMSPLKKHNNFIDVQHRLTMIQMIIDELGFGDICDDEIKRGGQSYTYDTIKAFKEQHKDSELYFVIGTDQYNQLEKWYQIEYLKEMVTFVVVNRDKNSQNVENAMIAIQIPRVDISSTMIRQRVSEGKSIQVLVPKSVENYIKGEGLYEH
Sequence of Serine/threonine-protein phosphatase (Q9BPW0 whole entry): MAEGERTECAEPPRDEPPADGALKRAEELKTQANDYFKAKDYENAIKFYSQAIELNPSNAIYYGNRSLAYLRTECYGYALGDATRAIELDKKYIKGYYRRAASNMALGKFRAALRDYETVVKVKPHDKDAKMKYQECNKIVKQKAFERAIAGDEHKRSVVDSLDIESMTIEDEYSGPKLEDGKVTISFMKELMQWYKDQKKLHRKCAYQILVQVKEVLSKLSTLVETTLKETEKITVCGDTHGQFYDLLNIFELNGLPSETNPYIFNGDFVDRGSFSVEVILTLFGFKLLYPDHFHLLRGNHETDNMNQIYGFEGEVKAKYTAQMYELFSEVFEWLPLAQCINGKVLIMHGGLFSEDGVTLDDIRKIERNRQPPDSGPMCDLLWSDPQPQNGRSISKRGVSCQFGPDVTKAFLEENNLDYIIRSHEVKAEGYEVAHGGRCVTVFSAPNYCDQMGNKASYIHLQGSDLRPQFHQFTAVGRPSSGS
Sequence of DNA (cytosine-5)-methyltransferase 1 (P26358 whole entry, the tested form may be a part): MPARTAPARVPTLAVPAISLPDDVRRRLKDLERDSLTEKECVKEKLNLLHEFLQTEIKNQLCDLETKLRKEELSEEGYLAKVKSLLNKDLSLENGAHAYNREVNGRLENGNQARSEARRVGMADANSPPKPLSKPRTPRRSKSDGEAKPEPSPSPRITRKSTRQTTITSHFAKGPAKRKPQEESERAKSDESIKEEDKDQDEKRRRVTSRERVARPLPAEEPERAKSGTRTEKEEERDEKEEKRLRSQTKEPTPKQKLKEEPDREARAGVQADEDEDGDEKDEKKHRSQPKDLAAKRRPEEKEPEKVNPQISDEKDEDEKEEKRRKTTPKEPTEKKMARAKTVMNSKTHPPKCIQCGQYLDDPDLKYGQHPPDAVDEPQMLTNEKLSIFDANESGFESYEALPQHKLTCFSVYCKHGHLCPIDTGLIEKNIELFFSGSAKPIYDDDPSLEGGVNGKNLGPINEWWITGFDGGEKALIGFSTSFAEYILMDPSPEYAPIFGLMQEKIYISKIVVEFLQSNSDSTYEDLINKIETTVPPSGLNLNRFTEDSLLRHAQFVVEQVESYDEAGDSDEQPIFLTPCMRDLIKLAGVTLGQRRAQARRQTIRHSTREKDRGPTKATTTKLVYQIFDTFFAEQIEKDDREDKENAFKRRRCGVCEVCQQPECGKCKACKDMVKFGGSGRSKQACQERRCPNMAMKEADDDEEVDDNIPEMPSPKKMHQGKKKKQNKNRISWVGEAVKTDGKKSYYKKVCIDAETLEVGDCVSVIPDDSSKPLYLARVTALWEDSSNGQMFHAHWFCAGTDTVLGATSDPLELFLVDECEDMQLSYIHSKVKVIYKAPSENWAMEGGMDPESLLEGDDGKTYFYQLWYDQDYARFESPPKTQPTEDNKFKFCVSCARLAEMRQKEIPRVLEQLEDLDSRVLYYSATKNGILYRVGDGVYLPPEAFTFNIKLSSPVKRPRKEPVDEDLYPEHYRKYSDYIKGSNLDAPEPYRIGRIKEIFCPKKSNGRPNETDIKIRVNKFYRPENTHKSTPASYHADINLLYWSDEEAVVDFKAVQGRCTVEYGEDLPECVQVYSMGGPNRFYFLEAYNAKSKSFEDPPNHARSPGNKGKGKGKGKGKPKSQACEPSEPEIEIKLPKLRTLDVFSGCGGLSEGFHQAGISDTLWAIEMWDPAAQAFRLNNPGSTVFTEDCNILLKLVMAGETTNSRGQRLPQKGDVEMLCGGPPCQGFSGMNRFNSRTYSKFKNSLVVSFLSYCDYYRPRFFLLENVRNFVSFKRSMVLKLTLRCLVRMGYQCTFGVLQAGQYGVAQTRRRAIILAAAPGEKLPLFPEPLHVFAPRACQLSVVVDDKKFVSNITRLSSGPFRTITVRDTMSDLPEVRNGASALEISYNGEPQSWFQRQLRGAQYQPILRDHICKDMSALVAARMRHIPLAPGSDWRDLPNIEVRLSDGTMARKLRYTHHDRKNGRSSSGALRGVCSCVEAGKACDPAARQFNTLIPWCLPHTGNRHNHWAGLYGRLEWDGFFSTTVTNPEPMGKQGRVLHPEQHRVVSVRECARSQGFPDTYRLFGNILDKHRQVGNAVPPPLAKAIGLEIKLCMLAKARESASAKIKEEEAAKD
Sequence of Envelope glycoprotein gp160 (Q6QLK5 whole entry, the tested form may be a part): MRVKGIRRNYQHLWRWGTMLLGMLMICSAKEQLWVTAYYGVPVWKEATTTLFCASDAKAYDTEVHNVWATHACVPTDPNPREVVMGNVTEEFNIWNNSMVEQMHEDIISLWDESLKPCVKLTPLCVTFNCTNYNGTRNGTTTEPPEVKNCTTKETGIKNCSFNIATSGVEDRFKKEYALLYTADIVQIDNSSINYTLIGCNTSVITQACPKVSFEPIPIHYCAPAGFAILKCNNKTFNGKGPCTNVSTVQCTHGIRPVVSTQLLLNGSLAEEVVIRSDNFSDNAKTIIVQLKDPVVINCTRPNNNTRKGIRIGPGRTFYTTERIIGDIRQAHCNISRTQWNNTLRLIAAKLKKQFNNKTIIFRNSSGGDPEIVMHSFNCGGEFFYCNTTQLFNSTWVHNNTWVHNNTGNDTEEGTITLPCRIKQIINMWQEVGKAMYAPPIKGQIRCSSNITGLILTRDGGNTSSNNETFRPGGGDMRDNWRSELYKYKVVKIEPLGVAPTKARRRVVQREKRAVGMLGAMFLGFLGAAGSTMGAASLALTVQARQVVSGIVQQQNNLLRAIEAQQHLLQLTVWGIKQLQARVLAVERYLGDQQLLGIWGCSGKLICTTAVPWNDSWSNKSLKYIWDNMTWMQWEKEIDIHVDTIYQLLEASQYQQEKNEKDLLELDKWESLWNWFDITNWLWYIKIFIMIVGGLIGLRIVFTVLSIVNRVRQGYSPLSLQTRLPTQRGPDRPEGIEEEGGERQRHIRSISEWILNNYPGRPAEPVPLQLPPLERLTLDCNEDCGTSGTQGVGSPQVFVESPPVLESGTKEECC
Sequence of Lysine-specific demethylase 4C (Q9H3R0 whole entry): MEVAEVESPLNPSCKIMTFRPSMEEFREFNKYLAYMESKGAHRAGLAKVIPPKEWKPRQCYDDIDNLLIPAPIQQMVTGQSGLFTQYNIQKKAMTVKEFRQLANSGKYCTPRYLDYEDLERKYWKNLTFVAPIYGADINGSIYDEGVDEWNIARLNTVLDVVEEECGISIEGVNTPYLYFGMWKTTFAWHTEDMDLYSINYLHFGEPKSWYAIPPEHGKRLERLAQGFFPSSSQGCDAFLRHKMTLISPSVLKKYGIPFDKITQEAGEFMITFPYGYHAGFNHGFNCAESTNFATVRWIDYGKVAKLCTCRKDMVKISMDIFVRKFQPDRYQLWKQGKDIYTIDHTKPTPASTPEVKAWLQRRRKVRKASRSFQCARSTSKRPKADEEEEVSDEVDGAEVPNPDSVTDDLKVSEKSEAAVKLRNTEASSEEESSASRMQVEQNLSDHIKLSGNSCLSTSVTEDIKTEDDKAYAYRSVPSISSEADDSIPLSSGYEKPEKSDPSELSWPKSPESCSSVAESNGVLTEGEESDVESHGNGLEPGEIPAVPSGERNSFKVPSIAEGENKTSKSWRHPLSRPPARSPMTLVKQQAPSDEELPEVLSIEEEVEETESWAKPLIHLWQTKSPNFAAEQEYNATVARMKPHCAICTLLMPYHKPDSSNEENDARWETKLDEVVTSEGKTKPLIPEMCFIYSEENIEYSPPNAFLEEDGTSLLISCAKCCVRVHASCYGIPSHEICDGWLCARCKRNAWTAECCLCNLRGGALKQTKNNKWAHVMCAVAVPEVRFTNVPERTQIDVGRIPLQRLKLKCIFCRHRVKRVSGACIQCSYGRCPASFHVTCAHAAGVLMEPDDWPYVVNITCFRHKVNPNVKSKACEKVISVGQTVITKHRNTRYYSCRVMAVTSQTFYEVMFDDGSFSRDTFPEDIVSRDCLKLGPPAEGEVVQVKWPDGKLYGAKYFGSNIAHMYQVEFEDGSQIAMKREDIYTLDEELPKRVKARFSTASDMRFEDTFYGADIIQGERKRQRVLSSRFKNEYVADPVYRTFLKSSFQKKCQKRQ
Sequence of Serine/threonine-protein phosphatase PP1-alpha catalytic subunit (P62136 whole entry): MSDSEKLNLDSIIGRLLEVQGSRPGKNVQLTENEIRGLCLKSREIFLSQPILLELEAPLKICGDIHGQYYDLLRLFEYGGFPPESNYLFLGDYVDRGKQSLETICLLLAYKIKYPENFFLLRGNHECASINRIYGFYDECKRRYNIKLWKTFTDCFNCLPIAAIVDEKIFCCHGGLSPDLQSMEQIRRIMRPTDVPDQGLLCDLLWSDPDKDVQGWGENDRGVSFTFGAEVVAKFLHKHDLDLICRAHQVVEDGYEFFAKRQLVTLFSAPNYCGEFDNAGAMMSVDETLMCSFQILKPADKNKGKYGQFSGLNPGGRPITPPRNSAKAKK
Sequence of Mitochondrial peptide methionine sulfoxide reductase (P54149 whole entry): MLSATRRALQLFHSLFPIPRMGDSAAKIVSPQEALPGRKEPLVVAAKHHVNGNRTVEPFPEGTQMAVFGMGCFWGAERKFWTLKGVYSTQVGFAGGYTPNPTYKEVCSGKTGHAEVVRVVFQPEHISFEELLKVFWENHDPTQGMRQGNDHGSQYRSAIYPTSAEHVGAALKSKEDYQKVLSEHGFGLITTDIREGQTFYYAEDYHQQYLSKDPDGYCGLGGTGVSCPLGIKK

Nc1ccc2nc3c(O)nc(S)nc3nc2c1
IC50 [1]: 7.46 µM (active) | IC50 [2]: 17 µM (active)

Cc1oc2c(c1C(=O)c1ccccc1)C(=O)C(=O)c1ccccc1-2
EC50 [3]: 8.93 µM (active) | CC50 (Vero): 6.37 µM (active) | EC50 [4]: 63.2 µM (inactive)

O=C1CCCC2=C1C1(O)C(=O)c3ccccc3C1(O)O2 (stereo unspecified)
IC50 [5]: > 67 µM (not active) | IC50 [6]: > 828 nM (active)

CSc1ccc(C=NNc2ccc(S(=O)(=O)Nc3ccccc3C(=O)O)cc2[N+](=O)[O-])cc1
AC50 [7]: 5.43 µM (active) | IC50 [8]: 3.26 µM (active)

O=C(O)COc1ccc(/C=N/NC(=O)c2ccc(-c3csc(Nc4ccc(Cl)cc4)n3)cc2)cc1
IC50 [9]: 15 µM (active) | IC50 [10]: 10.1 µM (active) | IC50 [11]: 27.3 µM (active) | IC50 [12]: 334 nM (active) and 325 nM (active) | IC50 [13]: 113 nM (active) | IC50 [14]: 6.07 µM (active)

CC(/C=C1\SC(=S)N(NS(=O)(=O)c2ccccc2)C1=O)=C\c1ccccc1
IC50 (Phospholipase A2): 8.23 µM (active)
